Values of other authors, collected in patent publication US20090104287A1, “Protocol for AIDS prevention and treatment by nutritional methods” (priority 2002, published 2009).

Legend:
HIV-infected patients = conditions: supplementation (usually given as N-acetyl cysteine)
[1] = tested on: HIV seropositive patients; conditions: supplementation

SMILES | glutathione in CD4 T cells (HIV-infected patients) | replenishing whole blood and T cell glutathione [1]
N[C@@H](CS)C(=O)O [cysteine] | replenishes low glutathione in CD4 T cells | 
CC(=O)N[C@@H](CS)C(=O)O [N-acetyl cysteine] |  | often seems effective in replenishing both whole blood and T cell glutathione
